Measurements as given in US20130259807A1, “CELL CULTURE SCREEN FOR AGENTS THAT CONTROL ADIPOGENESIS AND MYOFIBROBLAST DIFFERENTIATION” (THE REGENTS OF THE UNIVERSITY OF CALIFORNIA, priority 2010, published 2013).

System: rat mesenchymal stem cells
Experiment: Culture screening adipogenesis assay (lipid accumulation, Oil Red O / BODIPY)
Assay type: cell-based
Settings: insulin in the progressing medium, positive control set as 100%
Method: To prepare adipogenesis initiation/priming medium, a IBMX standard solution ([…]) is diluted 1:1000 and a dexamethasone standard solution (1 μM dexamethasone standard solution (in DMSO)) is diluted 1:10,000 in DMEM+10% FCS. A typical cocktail of antibiotics can be added to restrict microbe growth. This initiation medium can be stored for up to 6 weeks at 4° C.
To prepare positive control progression medium, a standard insulin solution (10 μg/ml insulin) is diluted 1:1000 in DMEM+10% FCS. Antibiotics of choice are added to control growth of microbes. This control progression medium can be stored for up to 6 weeks at 4° C.
To prepare experimental/test (e.g., RHAMM blocking or other experimental adipogenic promoting reagent) progression medium, test agents are provided in a standard solution (e.g. 0.001-10 μg RHAMM antibody, peptide mimetic(s), or other test agent(s)). The test agent solution is diluted to the desired concentration (e.g. 1 ng-10 μg RHAMM peptide) in DMEM+10% FCS. […]
Cells for the adipogenesis screen can be plated as follows: The cells are trypsinized and then resuspended in 1 ml DMEM+10% CS to neutralize the trypsin. The cells are then counted. […]
The dye can be extracted with methanol:ethanol (1:1) mixture and read oil red O at 520 nm using an ELISA plate reader or for BODIPY® using a fluorometer that detects FITC.

insulin
Extent of lipid accumulation (Oil Red O at 520 nm): 100%
